# Test results published in BindingDB's records for patent US20250197396 (Lieber Institute, 2025).
# Target: Inositol hexakisphosphate kinase 1 (Homo sapiens, UniProt Q92551)
# Assay: Not found
# From the text: Not found
# Sequence of Inositol hexakisphosphate kinase 1 (Q92551 whole entry): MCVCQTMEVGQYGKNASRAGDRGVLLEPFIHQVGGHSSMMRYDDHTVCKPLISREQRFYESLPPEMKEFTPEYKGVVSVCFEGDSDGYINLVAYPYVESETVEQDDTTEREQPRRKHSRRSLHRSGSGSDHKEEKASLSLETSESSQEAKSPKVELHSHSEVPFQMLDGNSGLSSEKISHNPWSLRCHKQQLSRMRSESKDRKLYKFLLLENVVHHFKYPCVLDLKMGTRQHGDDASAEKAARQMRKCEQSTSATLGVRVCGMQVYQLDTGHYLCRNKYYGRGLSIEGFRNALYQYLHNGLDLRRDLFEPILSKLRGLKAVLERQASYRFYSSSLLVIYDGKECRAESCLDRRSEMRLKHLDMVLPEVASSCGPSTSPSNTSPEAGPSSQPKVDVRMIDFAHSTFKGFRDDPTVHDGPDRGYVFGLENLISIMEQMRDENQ
smiles,measurement,value
"O=C(O)c1ccc2c(c1)C1(CCN(Cc3ncc(Cl)cc3Cl)CC1)C(=O)N2 [US20250197396, Compound 18a]",IC50,< 300 nM
